From patent EP0490667B1, “HIV protease inhibitors” (priority 1990, dated 1992)

target: T1, chemically synthesized HIV protease (Human immunodeficiency virus type 1 group M subtype B, UniProt P12497, C555A/C583A); type: biochemical; conditions: inhibitor 5 µM final concentration (Tables 1-2)
T1 construct: The HIV protease was chemically synthesized; made in house; host or cells: chemical synthesis (no expression host)
From the text: The HPLC condition was as followes. Column: VYDAC 218 TP 54, C18 • Solvent A: 0.1% trifluoroacetic acid aqueous solution • Solvent B: acetonitrile • Gradient: B was increased in 1.0%/min from 100% of A,

In order of rising “Residual Activity (%)” value:
1. 3-Phenylpropionyl-Msa-(2S,3S)-AHPBA-Pro-Ile-Val-NH2 [Example 62]  3.2%
2. PhCH2-O-CO-Asn-(2S,3S)-AHPBA-Pro-NH-CH2-C6H11 [Example 49]  51.9%
3. Benzyloxycarbonyl-Val-(2R,3S)-AHPBA-Phe-Val-NH-CH2-CH(CH3)2 [Example HH]  83.4%
4. Benzyloxycarbonyl-Val-(2R,3S)-AHPBA-Phe-NH-CH2-CH(CH3)2 [Example JJ]  84.9%

same assay, conditions: inhibitor 1 mM (Tables 1-2)

In order of rising “Residual Activity (%)” value:
1. Thiophenecarbonyl-Asn-(2S,3S)-AHPBA-Pro-Ile-Val-NH2 [Example 67]  4.9%
2. Furancarbonyl-Asn-(2S,3S)-AHPBA-Pro-Ile-Val-NH2 [Example 65]  9.3%

same assay, conditions: inhibitor 1mM as headed in Tables 3-6

For “1-Naphthoxyacetyl-Msa-(2S,3S)-AHPBA-Thz-NH-chex-ol [Example 158]”, the “Residual Activity (%)” value was <10%.
With “Benzyloxycarbonyl-Asn-(2S,3S)-AHPBA-Pro-Aib-NH2 [Example 93]” the “Residual Activity (%)” value was <10%.
“Benzyloxycarbonyl-Asn-(2S,3S)-AHPBA-Pro-NH-CH(C2H5)2 [Example 89]” was tested, and the “Residual Activity (%)” value was <10%.
In the case of “Benzyloxycarbonyl-Asn-(2S,3S)-AHPBA-Pro-NH-cyclopropyl [Example 88]”, the “Residual Activity (%)” value is reported as <10%.

In order of rising “Residual Activity (%)” value:
1. Benzyloxycarbonyl-Asn-(2S,3S)-AHPBA-Thz-NH-tBu [Example 82]  1.3%
2. Benzyloxycarbonyl-Asn-(2S,3S)-AHPBA-Pro-NH-tAmyl [Example 87]  5.8%
3. Benzyloxycarbonyl-Asn-(2S,3S)-AHPBA-(L)-Pip-NH-tBu [Example 78]  11.7%
4. Benzyloxycarbonyl-Asn-(2S,3S)-AHPBA-Pro-NH-CH2-C(CH3)3 [Example 83]  12.4%
5. Benzyloxycarbonyl-Asn-(2S,3S)-AHPBA-Pro-O-tBu [Example 86]  12.6%
6. Benzyloxycarbonyl-Asn-(2S,3S)-AHPBA-Hyp(Bzl)-NH-tBu [Example 95]  34.6%
7. Benzyloxycarbonyl-Asn-(2S,3S)-AHPBA-(D)-Pip-NH-tBu [Example 79]  84.0%
8. Benzyloxycarbonyl-Asn-(2S,3S)-AHPBA-Inc-NH-tBu [Example 96]  95.2%

same assay, conditions: inhibitor 5mM as headed in Tables 3-6

In order of rising “Residual Activity (%)” value:
1. 2-Quinolinecarbonyl-Asn-(2S,3S)-AHPBA-Dtc-NH-tBu [Example 118]  1.8%
2. m-Isopropyloxyphenoxyacetyl-Msa-(2S,3S)-AHPBA-Dtc-NH-tBu [Example 166]  2.0%
3. 1-Naphthoxyacetyl-Mta-(2S,3S)-AHPBA-Thz-NH-tBu [Example 162]  2.9%
4. Benzyloxycarbonyl-Asn-(2S,3S)-AHPBA-Dtc-NH-tBu [Example 104]  3.8%
5. Benzyloxycarbonyl-Asn-(2S,3S)-AHPBA decahydroisoquinoline  8.6%
6. 1-Naphthoxyacetyl-Asn-(2S,3S)-AHPBA-Thz-NH-cyclopentyl [Example 128]  10.5%
7. Benzyloxycarbonyl-Asn-(2S,3S)-AHPBA-Php-NH-tBu [Example 184]  16.8%
8. m-(Piper-CO-)Ph-O-CH2-CO-Msa-(2S,3S)-AHPBA-Thz-NH-tBu [Example 167]  25.4%
9. Benzyloxycarbonyl-Asn-(2S,3S)-AHPBA-Dmp-NH-tBu [Example 182]  26.8%
10. 2-Quinolinecarbonyl-Asn-(2S,3S)-AHPBA-Pro-NH-tBu [Example 138]  27.3%
11. CC(CC(N)=O)NC(=O)[C@@H]1CSCN1C(=O)[C@@H](O)[C@H](Cc1ccccc1)NC(=O)[C@H](CS(C)(=O)=O)NC(=O)COc1cccc2ccccc12 (stereo partly drawn) [Example 175, 1-Naphthoxyacetyl-Msa-(2S,3S)-AHPBA-Thz-BANB-NH2]  33.0%
12. Bis(4-chlorophenyl)methyloxyacetyl-Asn-(2S,3S)-AHPBA-Pro-NH-tBu [Example 94]  37.0%
13. CC(C)(C)NC(=O)[C@@H]1CSCN1C(=O)[C@@H](O)[C@H](Cc1ccccc1)NC(=O)[C@H](CS(C)(=O)=O)NC(=O)COc1cccc(C(=O)N2CCOCC2)c1 [Example 168, m-(Morph-CO)-Ph-O-CH2-CO-Msa-(2S,3S)-AHPBA-Thz-NH-tBu]  44.5%
14. CC(CNC(=O)[C@@H]1CSCN1C(=O)[C@@H](O)[C@H](Cc1ccccc1)NC(=O)[C@H](CS(C)(=O)=O)NC(=O)COc1cccc2ccccc12)C(N)=O (stereo partly drawn) [Example 174, 1-Naphthoxyacetyl-Msa-(2S,3S)-AHPBA-Thz-BAIB-NH2]  46.6%
15. Benzyloxycarbonyl-Asn-(2S,3S)-AHPBA-Pdp-NH-tBu [Example 164]  49.8%
16. Benzyloxycarbonyl-Asn-(2S,3S)-AHPBA-Pro-NH-C(CH3)2-CH2-OH [Example 99]  62.2%
17. CS(=O)(=O)C[C@H](NC(=O)COc1cccc2ccccc12)C(=O)N[C@@H](Cc1ccccc1)[C@H](O)C(=O)N1CSC[C@H]1C(=O)NCCCC(N)=O [Example 173, 1-Naphthoxyacetyl-Msa-(2S,3S)-AHPBA-Thz-GABA-NH2]  65.0%
18. 1-Isoquinolinecarbonyl-Asn-(2S,3S)-AHPBA-Pro-NH-tBu.AcOH [Example 140]  72.8%
19. Benzyloxycarbonyl-Asn-(2S,3S)-AHPBA-Dtc-NH2 [Example 177]  74.2%
20. CS(=O)(=O)C[C@H](NC(=O)COc1cccc2ccccc12)C(=O)N[C@@H](Cc1ccccc1)[C@H](O)C(=O)N1CSC[C@H]1C(=O)NCC(N)=O [Example 172, 1-Naphthoxyacetyl-Msa-(2S,3S)-AHPBA-Thz-Gly-NH2]  77.9%
21. Benzyloxycarbonyl-Asn-(2S,3S)-AHPBA-Pro-NH-sBu [Example 176]  82.6%
22. PhCH2-O-CO-Asn-(2S,3S)-ASPBA-(L)-Tic-NH-tBu [Example 102]  89.2%
23. 1-Naphthoxyacetyl-Msa-(2S,3S)-AHPBA-Thz-Pip-O-CH3 [Example 159]  90.8%
24. PhCH2-O-CO-Asn-(2S,3S)-AHPBA-(D)-Tic-NH-tBu [Example 103]  91.4%
25. CS(=O)(=O)C[C@H](NC(=O)COc1cccc2ccccc12)C(=O)N[C@@H](Cc1ccccc1)[C@H](O)C(=O)N1CSC[C@H]1C(=O)N[C@H](C(N)=O)c1ccccc1 [Example 157, 1-Naphthoxyacetyl-Msa-(2S,3S)-AHPBA-Thz-Phg-NH2]  93.9%
26. Benzyloxycarbonyl-Asn-(2S,3S)-AHPBA-Cpp-NH-tBu [Example 185]  96.0%
27. 1-Naphthoxyacetyl-Msa-(2S,3S)-AHPBA-Oic-NH-tBu [Example 146]  97.5%
28. Benzyloxycarbonyl-Asn-(2S,3S)-AHPBA-Dmp-NH2 [Example 188]  98.1%
29. Benzyloxycarbonyl-Asn-(2S,3S)-AHPBA-Ccp-NH-tBu [Example 187]  99.0%
30. Benzyloxycarbonyl-Asn-(2S,3S)-AHPBA-Tcp-NH-tBu [Example 186]  99.5%
